Measurements from patent publication US4894377A, “β-carbolines and their use as medicinal agents” (Schering Aktiengesellschaft, priority 1983, dated 1990).
Values after ≈ are worked out from the molar mass of the structure shown.

Tests used:
[1] = tested on: convulsions induced by pentylenetetrazole (Pentazol); assay: protection from convulsions and death induced by pentylenetetrazole (Pentazol); assay type: in vivo; settings: Mus musculus, ip; protects 50% of mice from convulsions and death; test compound intraperitoneal, 15-30 minutes before Pentazol
Description: (§1) The compounds of this invention show, in a pharmacological test, anxiolytic, antiagressive, and anticonvulsive activities. Two testing systems were employed to examine the anticonvulsive effect. The elimination of convulsions induced, on the one hand, by pentylenetetrazole (Pentazol) and, on the other hand, by 6,7-dimethoxy-4-ethyl-β-carboline-3-carboxylic acid methyl ester (DMCM) was examined. Pentazol and DMCM, respectively, are administered 15-30 minutes after intraperitoneal administration of the test compound in an amount of 15 mg/kg as an aqueous solution (pH 7) intraperitoneally and, respectively, in an amount of 150 mg/kg as a hydrochloric acid solution (pH 2-3) subcutaneously. These quantities induce clonic and tonic convulsions leading to death in untreated animals.
(§2) The ED50 values indicated in the table were determined according to the method by Litchfield and Wilcoxon (1949) as the amount of antagonistically active compound required to protect 50% of the animals from convulsions and death.

benzodiazepine receptors = assay: displacement of specific binding of 3H flunitrazepam in vitro (rat cerebral membrane suspension); settings: 50% displacement of specific binding of 3H flunitrazepam (1.0 nM, 0° C.), rat cerebrum
[2] = tested on: convulsions induced by 6,7-dimethoxy-4-ethyl-β-carboline-3-carboxylic acid methyl ester (DMCM); assay: protection from convulsions and death induced by DMCM; assay type: in vivo; settings: Mus musculus, ip; protects 50% of mice from convulsions and death; test compound intraperitoneal, 15-30 minutes before DMCM
Description: as §1, §2

[3] = tested on: clonic convulsions at 111 dB; assay: audiogenic seizure test; assay type: in vivo; settings: Mus musculus, ip, 0.5 h; dose at which 40% of mice show no convulsions at 111 dB (14 kHz); DBA/2 mice, intraperitoneal, 30 minutes prior
Description: The compounds of this invention also show a convulsion-relieving and/or convulsion-eliminating effect in the audiogenic seizure test. For this purpose, 18-21 day old male mice weighing 8-12 g (DBA/2 mice) receive intraperitoneally the compound to be tested as an ultrasound microsuspension in water/"Cremofor" EL (95:5) 30 minutes prior to testing. The animals are then exposed, in a soundproof wooden box (25×22×15 cm), to a sinusoidal sound of 14 kHz at 111 dB. The sound is generated immediately after transferring the animal into the box. Occurrence of clonic convulsions is recorded for 30 seconds. The ED50 value in the table indicates the dose at which 40% of the mice show no convulsions at 111 dB (80% of the control mice show convulsions at 111 dB).

Compound | ED50 [1] [mg/kg] | IC50 (in vitro) (benzodiazepine receptors) [ng/mL] | ED50 [2] [mg/kg] | ED50 [3] [mg/kg]
CCOC(=O)c1ncc2[nH]c3cccc(OCc4ccc(Cl)cc4)c3c2c1COC [Substituent 4-chloro, 5-(4-chlorobenzyloxy)-4-methoxymethyl-β-carboline-3-carboxylic acid ethyl ester] | > 30 | 0.9 (≈ 2.12 nM) | – | –
CCOC(=O)c1ncc2[nH]c3cccc(OC(C)c4ccccc4)c3c2c1COC (stereo not drawn) [α-methyl] | 3 | 1.1 (≈ 2.72 nM) | 0.1 | 0.01
CCOC(=O)c1ncc2[nH]c3cccc(OCc4cccc(OC)c4)c3c2c1COC [Substituent 3-methoxy, 5-(3-methoxybenzyloxy)-4-methoxymethyl-β-carboline-3-carboxylic acid ethyl ester] | > 100 | 0.5 (≈ 1.19 nM) | – | –
CCOC(=O)c1ncc2[nH]c3cccc(OCc4cccc(C(F)(F)F)c4)c3c2c1COC [3-trifluoromethyl, 5-(3-trifluoromethylbenzyloxy)-4-methoxymethyl-β-carboline-3-carboxylic acid ethyl ester] | 12 | 1.4 (≈ 3.05 nM) | – | –
CCOC(=O)c1ncc2[nH]c3cccc(OCc4ccccc4)c3c2c1COC | 15 | 2 (≈ 5.12 nM) | 0.6 | 0.5
CCOC(=O)c1ncc2[nH]c3cccc(OCc4ccc(C)c(C)c4)c3c2c1COC [3,4-dimethyl, 5-(3,4-dimethylbenzyloxy)-4-methoxymethyl-β-carboline-3-carboxylic acid ethyl ester] | 30 | 1.7 (≈ 4.06 nM) | – | –
CCOC(=O)c1ncc2[nH]c3cccc(OCc4ccc(F)cc4)c3c2c1COC [Substituent 4-fluoro, 5-(4-fluorobenzyloxy)-4-methoxymethyl-β-carboline-3-carboxylic acid ethyl ester] | 30 | 0.4 (≈ 0.979 nM) | 0.1 | 0.2
CCOC(=O)c1ncc2[nH]c3cccc(OCc4ccc(C)cc4)c3c2c1COC [Substituent 4-methyl, 5-(4-methylbenzyloxy)-4-methoxymethyl-β-carboline-3-carboxylic acid ethyl ester] | 30 | 0.9 (≈ 2.23 nM) | – | –
CCOC(=O)c1ncc2[nH]c3cccc(OCc4ccc(Cl)c(Cl)c4)c3c2c1COC [3,4-dichloro, 5-(3,4-dichlorobenzyloxy)-4-methoxymethyl-β-carboline-3-carboxylic acid ethyl ester] | 6 | 2.1 (≈ 4.57 nM) | 2.2 | –
CCOC(=O)c1ncc2[nH]c3cccc(OCc4ccc([N+](=O)[O-])cc4)c3c2c1COC [Substituent 4-nitro, 5-(4-nitrobenzyloxy)-4-methoxymethyl-β-carboline-3-carboxylic acid ethyl ester] | > 50 | 0.2 (≈ 0.459 nM) | – | –
CCOC(=O)c1ncc2[nH]c3cccc(OCc4ccccc4F)c3c2c1COC [Substituent 2-fluoro, 5-(2-fluorobenzyloxy)-4-methoxymethyl-β-carboline-3-carboxylic acid ethyl ester] | 13 | 0.3 (≈ 0.735 nM) | 0.4 | 0.05
CCOC(=O)c1ncc2[nH]c3cccc(OCc4cccc(F)c4)c3c2c1COC [Substituent 3-fluoro, 5-(3-fluorobenzyloxy)-4-methoxymethyl-β-carboline-3-carboxylic acid ethyl ester] | 12 | 0.3 (≈ 0.735 nM) | 0.3 | 0.05
CCOC(=O)c1ncc2[nH]c3cccc(OCc4cccc(Br)c4)c3c2c1COC [Substituent 3-bromo, 5-(3-bromobenzyloxy)-4-methoxymethyl-β-carboline-3-carboxylic acid ethyl ester] | 6 | 0.8 (≈ 1.7 nM) | – | –
CCOC(=O)c1ncc2[nH]c3cccc(OC(C)c4cccc(Cl)c4)c3c2c1COC (stereo not drawn) [α-methyl, 3-chloro, 5-[1-(3-chlorophenyl)ethoxy]-4-methoxymethyl-β-carboline-3-carboxylic acid ethyl ester] | 2 | 4.3 (≈ 9.8 nM) | – | –
CCOC(=O)c1ncc2[nH]c3cccc(OCCc4ccccc4)c3c2c1COC | 40 | 0.8 (≈ 1.98 nM) | – | –
CCOC(=O)c1ncc2[nH]c3cccc(OCCCc4ccccc4)c3c2c1COC | 30 | 1.9 (≈ 4.54 nM) | 5.5 | –
CCOC(=O)c1ncc2[nH]c3cccc(OCc4cccc(Cl)c4)c3c2c1COC [Substituent 3-chloro, 5-(3-chlorobenzyloxy)-4-methoxymethyl-β-carboline-3-carboxylic acid ethyl ester] | 0.9 | 1.4 (≈ 3.3 nM) | 0.3 | 0.08
